Like-named read-outs stand apart in the source and are kept apart here.
B1: Hog Pancreatic Lipase: Hog Pancreatic Lipase, Fluka (protein, UniProt P00591 1-450, looked up)
Pancreatic triacylglycerol …: SEVCFPRLGCFSDDAPWAGIVQRPLKILPWSPKDVDTRFLLYTNQNQNNYQELVADPSTITNSNFRMDRKTRFIIHGFIDKGEEDWLSNICKNLFKVESVNCICVDWKGGSRTGYTQASQNIRIVGAEVAYFVEVLKSSLGYSPSNVHVIGHSLGSHAAGEAGRRTNGTIERITGLDPAEPCFQGTPELVRLDPSDAKFVDVIHTDAAPIIPNLGFGMSQTVGHLDFFPNGGKQMPGCQKNILSQIVDIDGIWEGTRDFVACNHLRSYKYYADSILNPDGFAGFPCDSYNVFTANKCFPCPSEGCPQMGHYADRFPGKTNGVSQVFYLNTGDASNFARWRYKVSVTLSGKKVTGHILVSLFGNEGNSRQYEIYKGTLQPDNTHSDEFDSDVEVGDLQKVKFIWYNNNVINPTLPRVGASKITVERNDGKVYDFCSQETVREEVLLTLNPC

Tests used:
[1] = assay type: physicochemical
Experimental: HPLC sample standards were prepared by dissolving KLG, MeKLG, ascorbic acid (ASA), and butyl-KLG to the appropriate concentration in water. Samples of these standards were placed in filled and sealed vials, stored at room temperature, and analyzed periodically. The HPLC was calibrated on the area response for standards that were injected onto the HPLC as soon as possible after the preparation of the standards.

[2] = enzyme screen for hydrolysis/methanolysis of butyl-KLG (HPLC of products and remaining substrate); assay type: biochemical; design: KLG formed / MeKLG formed / ASA formed / BuKLG (remaining substrate): unit: ppm; settings: 19 Hours
Experimental: Initial enzyme screens were carried out as follows. Enzyme (typically 10 mg), aqueous buffer (typically 860 microliters (ul) or 550 ul), aqueous 0.2M CaCl2 (10 ul), methanol (typically 90 ul or 400 ul), and an aqueous solution of substrate (typically 90 ul of butyl-KLG at a typical concentration of 110,000 ppm) were added to a 2 ml polypropylene centrifuge tube. The resulting solution was vortexed briefly and placed on a shaker bath at 300 rpm at 38° C. (typically for 18 hours or more). After incubation, samples were centrifuged at 14,000 G's (14,000 times gravity) for 20 minutes to remove enzyme, sampled (300 ul), and diluted to one milliliter with distilled water. If not analyzed by HPLC within the day, samples were frozen prior to analysis.
The data were reported in terms of parts per million of KLG, MeKLG, ascorbic acid (ASA) and butyl-KLG. […] Samples labeled as "no enzyme" were controls within a given run. The controls contained substrate but no enzyme and thus represented experimental and HPLC background data.

[3] = Table 5: 38° C., 38% Methanol-Water, 0.1 M MES Buffer
[4] = Table 6: 38°, 8.6% Methanol-Water, 0.1 M MES

| Molecule | Amount Found ([1]; 50 ppm standard, 0 minutes) [ppm] | Amount Found ([1]; 50 ppm standard, 400 minutes) [ppm] | Amount Found ([1]; 50 ppm standard, 715 minutes) [ppm] | Amount Found ([1]; 100 ppm standard, 0 minutes) [ppm] | Amount Found ([1]; 100 ppm standard, 400 minutes) [ppm] | Amount Found ([1]; 100 ppm standard, 715 minutes) [ppm] | Amount Found ([1]; 500 ppm standard, 0 minutes) [ppm] | Amount Found ([1]; 500 ppm standard, 400 minutes) [ppm] | Amount Found ([1]; 500 ppm standard, 715 minutes) [ppm] | ASA formed [2, 3] [ppm] | BuKLG (remaining substrate) [2, 3] [ppm] | KLG formed [2, 3] [ppm] | MeKLG formed [2, 3] [ppm] | ASA formed [2, 4] [ppm] | BuKLG (remaining substrate) [2, 4] [ppm] | KLG formed [2, 4] [ppm] | MeKLG formed [2, 4] [ppm] |
| --- | --- | --- | --- | --- | --- | --- | --- | --- | --- | --- | --- | --- | --- | --- | --- | --- | --- |
| O=C1O[C@H]([C@@H](O)CO)C(O)=C1O [ASA, ascorbic acid] | 53.4 | 28.3 | 0 | 107 | 96.6 | 57.2 | 534 | 487 | 473 |  |  |  |  |  |  |  |  |
| O=C(O)C(=O)[C@@H](O)[C@H](O)[C@@H](O)CO [KLG, 2-keto-L-gulonic acid] | 51 | 39.9 | 52 | 102 | 94.3 | 81.8 | 510 | 479 | 493 |  |  |  |  |  |  |  |  |
| COC(=O)C(=O)[C@@H](O)[C@H](O)[C@@H](O)CO [MeKLG, methyl-2-keto-L-gulonate] | 51.4 | 47.7 | 43 | 103 | 106.8 | 90.2 | 514 | 496 | 495 |  |  |  |  |  |  |  |  |
| B1 |  |  |  |  |  |  |  |  |  | 130 | 11114 | 58 | 529 | 158 | 5284 | 890 | 791 |

From patent US5817490A, “Enzymatic process for the manufacture of ascorbic acid 2-keto-L-gulonic acid and esters of 2-keto-L-gulonic acid” (Eastman Chemical Company, priority 1997, dated 1998)
